Reference: US11883416B2, “Methods and compositions for the treatment of IL13Ra2—overexpressing cancer” (CONSEJO SUPERIOR DE INVESTIGACIONES CIENTÍFICAS (CSIC), priority 2020, dated 2024)
“Also recorded” adds a separate entry of the source.

Tests used:
U251 cells [1] = assay: GBM subcutaneous xenograft tumor growth; type: in vivo, NSG mice
Protocol: (§1) FIGS. 7A-7E show PTP1B inhibition increases survival in CRC and glioblastoma mouse models. […] Murine β-actin amplification was used as a loading control.
(§2) For GBM xenografts, NSG mice were subcutaneously inoculated with U251 cells. Then, mice were treated intraperitoneally with 7 doses of Claramine (every three days) starting day 15 after implantation (a total of 2 mg/kg of body weight). The size of subcutaneous tumors was measured every 2 days. After euthanasia, tumors were isolated and the extracts subjected to Western blot analysis to determine IL13Rα2 and PTP1B activation. Liver homing and metastasis experiments in Swiss nude mice have been described. For CRC metastasis, mice were treated with the same dose of Claramine as above. Animals were weighed to study the effects on food intake and tolerance to the treatment.
Next, the in vivo effect of Claramine on GBM tumor growth and intracranial inoculation was investigated. First, mice were subcutaneously inoculated with U251 cells and xenografts were allowed to grow for 15 days before starting i.p. treatment with Claramine (FIG. 7C). Tumors in treated mice stop growing for the duration of the treatment when compared with non-treated mice. […] In addition, the involvement of IL13Rα2 and PTP1B in the tumor growth was studied using xenograft tissues. A significant increase of PTP1B phosphorylation (3-5 times) in vivo compared to cells in culture was found. […] An increased expression of IL13Rα2 in the xenografts was also noticed.

KM12SM cells [2] = assay: MTT proliferation assay with IL-13; type: cell-based, human; conditions: IL-13, Claramine 2 μM
Protocol: (§3) FIG. 5. […] B) KM12SM cells were subjected to cell adhesion. C) KM12SM and U87MG cells were subjected to MTT assays. The three cell lines were subjected to D) migration and E) invasion assays. All the experiments were done in the presence or absence of IL-13, Claramine and/or anti-IL13Rα2 blocking antibodies.
(§4) Proliferation assays have been previously described. To assess cell survival to oxidative stress, 10^4 cells were seeded per well on 96-well plates and incubated for 24 h in DMEM containing 1% serum in presence of 1 mM H2O2, followed by 1 h incubation with MTT. Cell viability was determined by A560 nm and compared with untreated cells.
(§5) Next, the effect of the PTP1B inhibitor Claramine on the pro-invasive effects of IL-13 was investigated. First, the cellular toxicity of Claramine was studied at different doses. Claramine at 5 μM caused around 50% decrease in cell survival, but had no effect at 2 μM, which was used in the remaining experiments (data not shown). […] The effects of Claramine on cell adhesion, migration, invasion, and, to a minor extent, proliferation mimicked the effects of PTP1B silencing in the three types of cancer cells (FIG. 5 B-E).

U87MG cells [3] = assay: MTT proliferation assay with IL-13; type: cell-based, human; conditions: IL-13, Claramine 2 μM
Protocol: as §3, §4, §5

KM12SM cells [4] = assay: colorectal cancer liver metastasis model, intrasplenic inoculation; type: in vivo, Swiss nude mice
Protocol: as §1, §2
Finally, the in vivo effects of PTP1B silencing or inhibition in colorectal cancer and glioblastoma mouse models were investigated. Given the high homology between murine and human IL-13, it was hypothesized that it was unnecessary to treat the mice with exogenous human IL-13 (11). Fora further confirmation, human and murine IL-13 were compared in an invasion experiment. Both IL-13 promoted a similar pro-invasive capacity on human cancer cells (data not shown). Then, the effect of PTP1B silencing on the capacity for liver homing of KM12SM cells inoculated in the spleen of nude mice was examined. As a surrogate marker for homing, human GAPDH was detected in the livers of mice inoculated with control cells but not in those inoculated with PTP1B-silenced cells (FIG. 7A). Then, the effects of Claramine on mice survival in colorectal cancer metastasis were investigated. Forty-eight h after spleen inoculation with CRC cells, mice were treated intraperitoneally (i.p.) with Claramine for two weeks on alternate days, with a total dose of 49 μg/mouse.

KM12SM cells [5] = assay: Western blot of pSrc Y530 in IL-13-treated cells; type: cell-based, human; conditions: 2 μM Claramine, IL13-treated KM12SM
Protocol: as §3
(§6) Western blot assays were done as previously described.
as §5

A2780 cells [6] = assay: Western blot of pSrc Y530 in IL-13-treated cells; type: cell-based, human; conditions: 2 μM Claramine, IL13-treated A2780
Protocol: as §3, §6, §5

U87MG cells [7] = assay: Western blot of pSrc Y530 in IL-13-treated cells; type: cell-based, human; conditions: 2 μM Claramine, IL13-treated U87MG
Protocol: as §3, §6, §5

GBM12 PDX = assay: intracranial model of GBM; type: in vivo, athymic nude mice
Excerpt: as §1
For intracranial experiments, athymic nude male mice were purchased from Jackson Laboratories. All experiments were approved by the Northwestern University Institutional Animal Care and Use Committee (IACUC). For the intracranial implantation of cannula and tumor cells, 6-8 weeks old […] mice were first anesthetized with a ketamine HCl (25 mg/ml)/xylazine (2.5 mg/ml) cocktail. A previously established surgical procedure was utilized in this study with a small variation reflecting the cannula implantation. For that, a custom-made 26 gauge sterile guide cannula (Plastics One, Roanoke, VA) was installed into the brain through a burr hole at 2 mm depth and secured with tissue glue (3M, St Paul, MN). For the glioma PDX cells implantation, a 33-gauge sterile syringe was inserted into the guide cannula at 3 mm depth following by infusion of 2.5 μl of 10^5 GBM12 cells. The skin incision was closed with surgical glue around the implantation site. The extracranial end of the cannula was then covered with a 33-gauge protection dummy cannula. The surgical procedure was followed with a standard post-surgery care according to the approved protocol. The intracranial injection of Claramine through cannula was done in 4 fractions for a total 4-8 mg/kg starting day 7 after tumor implantation and every 3 days after that. For systemic treatment, Claramine was delivered intravenously in 4 fractions for a total 8, 15 or 30 mg/kg starting day 7 after tumor implantation and every 3 days after that. Sterile 0.9% saline solution served as a negative control in all experiments.
Finally, an intracranial model of GBM using the GBM12 PDX that expresses high amounts of IL13Rα2 was tested. Tumors were implanted intracranially for seven days before starting the treatment with four doses of Claramine for a total of 4 mg/kg or 8 mg/kg (FIG. 7E). The median survival for the treated mice increased up to 36-39 days from 27 days of the control mice.

KM12SM cells [8] = assay: phosphorylation of insulin receptor substrate 1 (IRS-1); type: cell-based, human; conditions: KM12SM cells treated with IL-13 and Claramine
Excerpt: (§7) As PTP1B silencing or Claramine treatment might modulate glucose and energy homeostasis including insulin signaling, the effect of IL-13 on the glucose uptake and insulin signaling was also investigated. IL-13 increased the glucose uptake in GMB cells but not in CRC cells (data not shown). […] The phosphorylation of insulin receptor substrate 1 (IRS-1) in CRC and GBM cells treated with IL-13 and Claramine was then studied. A strong phosphorylation of IRS-1 in U251 cells treated with IL-13 was found. In contrast, phosphorylation of IRS-1 in KM12SM cells was much weaker, without differences after IL-13 addition. […] Together, these studies support that Claramine effect on tumor cells seems to be independent of the glucose homeostasis.

U251 cells [9] = assay: as above; type: cell-based, human; conditions: U251 cells treated with IL-13 and Claramine
Excerpt: as §7

KM12SM cells [10] = assay: IL-13-induced cell adhesion to Matrigel; type: cell-based, human; conditions: IL-13 10 ng/ml, Claramine 2 μM, trifluoroacetate salt
Protocol: as §3
(§8) Adhesion, wound healing and invasion assays have been previously reported.
as §5

KM12SM cells [11] = assay: IL-13-triggered migration (wound healing) assay; type: cell-based, human; conditions: IL-13, Claramine 2 μM, trifluoroacetate salt
Protocol: as §3, §8, §5

A2780 cells [12] = assay: IL-13-triggered migration (wound healing) assay; type: cell-based, human; conditions: A2780, IL-13, Claramine 2 μM; trifluoroacetate salt
Protocol: as §3, §8, §5

U87MG cells [13] = assay: IL-13-triggered migration (wound healing) assay; type: cell-based, human; conditions: IL-13, Claramine 2 μM, trifluoroacetate salt
Protocol: as §3, §8, §5

[14] = MTT assay for survival to oxidative stress (IL-13 promoted cell survival); type: cell-based; conditions: data not shown
Protocol: as §4, §5

U251 GBM cells = assay: Western blot of EGF and IL-13 signaling (pEGFR Y1068, pPTP1B Y66, pSrc Y419); type: cell-based, human
Protocol: FIG. 6. […] (A) U251 cells were treated with EGF, IL-13 or both, with or without Claramine. Cell extracts were analyzed by western blot to detect pEGFR Y1068, pPTP1B Y66, and pSrc Y419. B) U251 cells silenced for EGFR, IL13Rα2 or control cellswere treated with EGF or IL-13 in the presence or absence of Claramine. Cells were lysed and whole extracts were analyzed by western blot to detect pEGFR Y1068, pPTP1B Y66 and pSrc Y419.
as §6
EGFR is a substrate of PTP1B and might cooperate with IL13Rα2 in GBM invasion. To determine whether PTP1B participates in the modulation of the EGFR pathway besides the IL13Rα2, the effect of Claramine on EGF and IL-13 signaling in GBM was investigated. […] PTP1B Tyr66 was also phosphorylated by EGF and IL-13, indicating the participation of PTP1B in both pathways.

[15] = type: cell-based; conditions: data not shown
Protocol: as §5

KM12SM cells [16] = assay: IL-13-triggered invasion assay; type: cell-based, human; conditions: IL-13, Claramine 2 μM, trifluoroacetate salt
Protocol: as §3, §8, §5

A2780 cells [17] = assay: IL-13-triggered invasion assay; type: cell-based, human; conditions: A2780, IL-13, Claramine 2 μM; trifluoroacetate salt
Protocol: as §3, §8, §5

U87MG cells [18] = assay: IL-13-triggered invasion assay; type: cell-based, human; conditions: IL-13, Claramine 2 μM, trifluoroacetate salt
Protocol: as §3, §8, §5

GBM cells = assay: 2-NBDG glucose uptake assay; type: cell-based, human; conditions: data not shown
Protocol: Flow cytometry was performed as previously described. For IL13Rα2 internalization assays, cells were starved for 3 h, detached with 2 mM EDTA, incubated 30 min with IL-13 at 37° C., primary and secondary antibodies for 30 min at 4° C. and analyzed in the cytofluorimeter as previously described. For glucose uptake determination, cells were incubated with IL-13 and/or Claramine and subjected to the assays using 2-NBDG glucose uptake assays kit (BioVision) according to manufacturer's instructions. Glucose uptake was quantified in the cytofluorimeter.
as §7

[19] = U251 cells silenced for EGFR, IL13Rα2 or control, FIG. 6B

## CC(C)CCC[C@@H](C)[C@H]1CC[C@H]2[C@@H]3C[C@@H](NCCCNCCCCNCCCN)C4C[C@@H](O)CC[C@]4(C)[C@H]3CC[C@]12C.O=C(O)C(F)(F)F (stereo partly drawn) [Claramine, (3β, 6β)-6-[[3-[[4-[(3-Aminopropyl)amino]butyl]amino]propyl]amino]-cholestan-3-ol trifluoroacetate salt]
U251 cells [1]; Western blot of tumor extracts
  phosphorylation of PTP1B in xenograft tissues: moderate inhibition
U251 cells [1]; during i.p. treatment with Claramine, trifluoroacetate salt
  toxicity / weight of the animals: remained constant; also recorded: No Claramine toxicity was observed
U251 cells [1]; i.p. treatment starting 15 days after implantation, 7 doses, total 2 mg/kg, trifluoroacetate salt
  tumor growth: significantly inhibited; also recorded: stop growing; also recorded: regression
KM12SM cells [2]
  proliferation (MTT): inhibited
U87MG cells [3]
  proliferation (MTT): inhibited
KM12SM cells [4]; KM12SM intrasplenic, p<0.001
  mice survival (Kaplan-Meier): significantly increased
KM12SM cells [4]; day 100 post-inoculation, total dose 49 μg/mouse i.p.
  state of treated mice at sacrifice: without symptoms of the disease, presence of metastatic nodes or weight loss
KM12SM cells [4]; i.p., two weeks on alternate days, total dose 49 μg/mouse, trifluoroacetate salt
  protection against liver metastases: complete protection; also recorded: complete inhibition
KM12SM cells [5]
  phosphorylation of Src Tyr530: preserved
A2780 cells [6]
  phosphorylation of Src Tyr530: preserved
U87MG cells [7]
  phosphorylation of Src Tyr530: preserved
GBM12 PDX; GBM12 PDX intracranial, p<0.001, trifluoroacetate salt
  mice survival (Kaplan-Meier), treated versus control: significantly increased; also recorded: statistically significant difference in survival; also recorded: considerable increase
GBM12 PDX; four doses, total of 4 mg/kg or 8 mg/kg, from day 7
  survival up to: 70-72 days post-inoculation
GBM12 PDX; four doses, total of 4 mg/kg or 8 mg/kg, from day 7, control mice 27 days
  median survival: 36 to 39 days
KM12SM cells [8]
  IRS-1 phosphorylation: did not affect
U251 cells [9]
  IRS-1 phosphorylation: did not affect
KM12SM cells [10]
  IL-13-induced cell adhesion to Matrigel: inhibited; also recorded: abolished
KM12SM cells [11]
  cell migration: inhibit
A2780 cells [12]
  cell migration: inhibit
U87MG cells [13]
  cell migration: inhibit
[14]
  IL-13 promoted cell survival: significant reduction
U251 GBM cells; [19]
  EGFR activation: suppressed
  Src activation: suppressed
U251 GBM cells; U251 cells, FIG. 6A
  activation of EGFR (pEGFR Y1068) by EGF and IL-13: inhibited
  activation of Src (pSrc Y419) by EGF and IL-13: inhibited
[15]; Claramine at 2 μM
  effect on cell survival: no effect
[15]; Claramine at 5 μM
  decrease in cell survival: around 50%
KM12SM cells [16]
  cell invasion: inhibit
A2780 cells [17]
  cell invasion: inhibit
U87MG cells [18]
  cell invasion: inhibit
GBM cells
  IL-13-increased glucose uptake: did not inhibit
